Among the data in ChEMBL document CHEMBL1781923, “Synthesis and anti-tumor evaluation of panaxadiol derivatives” (Eur J Med Chem, 2011) are viability and IC50 values, retold here.

One may read the IC50 as the concentration at which inhibition is half-maximal. Lower therefore signals greater potency in that assay.

The structures appear in SMILES notation. Bounds are passed on as bounds.

A short description of test [1]: Cytotoxicity against human ES2 cells assessed as cell viability at 25 uM after 48 hrs by MTT assay. The settings on record: ES-2, 48 h, read-out: Activity. It counts as functional.
A short description of test [2]: Cytotoxicity against human ES2 cells assessed as cell viability at 50 uM after 48 hrs by MTT assay. It counts as functional. Conditions: ES-2, 48 h, read-out: Activity. On the technique in general: Formazan colour is commonly taken as a measure of viable cells.
The subject of test [3] is A549. The test is described as follows: Cytotoxicity against human A549 cells assessed as cell viability at 50 uM after 48 hrs by MTT assay. It counts as functional. Conditions: A549, 48 h, read-out: Activity.
In test [4] the test system is A549. Kind of test: Cytotoxicity against human A549 cells after 48 hrs by MTT assay. The test is classed as functional, cell-based. The settings on record: A549, 48 h.
The subject of test [5] is A549. The test is described as follows: Cytotoxicity against human A549 cells assessed as cell viability at 100 uM after 48 hrs by MTT assay. The test is classed as functional. The settings on record: A549, 48 h, read-out: Activity.
Test [6] concerns HepG2. Kind of test: Cytotoxicity against human HepG2 cells assessed as cell viability at 50 uM after 48 hrs by MTT assay. Conditions: HepG2, 48 h, read-out: Activity. It counts as functional.
Test [7] deals with HepG2. The test is described as follows: Cytotoxicity against human HepG2 cells assessed as cell viability at 25 uM after 48 hrs by MTT assay. The test is classed as functional. The settings on record: HepG2, 48 h, read-out: Activity.
Test [8] can be described thus: Cytotoxicity against human ES2 cells after 48 hrs by MTT assay. It counts as functional, cell-based. The settings on record: ES-2, 48 h.
The test system of test [9] is U2OS. The test is described as follows: Cytotoxicity against human U2OS cells assessed as cell viability at 50 uM after 48 hrs by MTT assay. The test is classed as functional. Conditions: read-out: Activity.
Test [10] concerns U2OS. Kind of test: Cytotoxicity against human U2OS cells after 48 hrs by MTT assay. The test is classed as functional, cell-based.
For test [11], the system named is U2OS. Kind of test: Cytotoxicity against human U2OS cells assessed as cell viability at 25 uM after 48 hrs by MTT assay. It counts as functional. The settings on record: read-out: Activity.
Test [12] has as its system HepG2. Kind of test: Cytotoxicity against human HepG2 cells after 48 hrs by MTT assay. It counts as functional, cell-based. Conditions: HepG2, 48 h.

Take `CC(C)=CCC[C@@](C)(O)[C@H]1CC[C@]2(C)[C@@H]1[C@H](O)C[C@@H]1[C@@]3(C)CC[C@H](O[C@@H]4O[C@H](CO)[C@@H](O)[C@H](O)[C@H]4O[C@@H]4O[C@H](CO)[C@@H](O)[C@H](O)[C@H]4O)C(C)(C)[C@@H]3CC[C@]12C`: the viability at 25 µM worked out at 82% in test [1], 81.3% in test [7] and 72.2% in [11]. Also, the viability at 50 µM in test [2] was found to be 74.5%; in test [3] it was 75.6%; in [6], 76.2%; in [9], 81.3%. The IC50 in test [4], in [8], in test [10] and in [12] was above 100 µM throughout. Further, the viability at 100 µM in [5] worked out at 71.1%.

For the molecule `C=CC(=O)O[C@H]1CC[C@]2(C)[C@H]3C[C@@H](O)[C@@H]4[C@@H]([C@@]5(C)CCCC(C)(C)O5)CC[C@@]4(C)[C@]3(C)CC[C@H]2C1(C)C`, the IC50 in test [4] is above 50 µM; in test [8] it was 8.02 µM; in test [10], 20.8 µM; in test [12] it was above 50 µM.

Take `C/C=C(\C)C(=O)O[C@H]1CC[C@]2(C)[C@H]3C[C@@H](O)[C@@H]4[C@@H]([C@@]5(C)CCCC(C)(C)O5)CC[C@@]4(C)[C@]3(C)CC[C@H]2C1(C)C`: the IC50 in test [4] is above 50 µM; in [8], 4.26 µM; in [10], 14.7 µM; in test [12], above 50 µM.

For `C=CCCC(=O)O[C@H]1CC[C@]2(C)[C@H]3C[C@@H](O)[C@@H]4[C@@H]([C@@]5(C)CCCC(C)(C)O5)CC[C@@]4(C)[C@]3(C)CC[C@H]2C1(C)C`, the IC50 in test [4] was above 50 µM; in test [8] it was 11.8 µM; in test [10], 39 µM; in test [12] it was above 50 µM.

Regarding `C/C=C/C=C/C(=O)O[C@H]1CC[C@]2(C)[C@H]3C[C@@H](O)[C@@H]4[C@@H]([C@@]5(C)CCCC(C)(C)O5)CC[C@@]4(C)[C@]3(C)CC[C@H]2C1(C)C`, the IC50 in test [4] was above 50 µM; in [8], 13.7 µM; in [10], 43.3 µM; in test [12] it was above 50 µM.

For the molecule `CC/C=C(\C)C(=O)O[C@H]1CC[C@]2(C)[C@H]3C[C@@H](O)[C@@H]4[C@@H]([C@@]5(C)CCCC(C)(C)O5)CC[C@@]4(C)[C@]3(C)CC[C@H]2C1(C)C`, the IC50 is above 50 µM in [4], 24.2 µM in [8], 38 µM in test [10] and above 50 µM in [12].

For `CCC/C=C/C(=O)O[C@H]1CC[C@]2(C)[C@H]3C[C@@H](O)[C@@H]4[C@@H]([C@@]5(C)CCCC(C)(C)O5)CC[C@@]4(C)[C@]3(C)CC[C@H]2C1(C)C`, the IC50 in [4] is above 50 µM; in test [8], 13.7 µM; in test [10], 43.9 µM; in test [12], above 50 µM.

`C=CCCCCCCCCC(=O)O[C@H]1CC[C@]2(C)[C@H]3C[C@@H](O)[C@@H]4[C@@H]([C@@]5(C)CCCC(C)(C)O5)CC[C@@]4(C)[C@]3(C)CC[C@H]2C1(C)C`: the IC50 was above 50 µM in test [4], 19.4 µM in [8], 31.6 µM in test [10] and above 50 µM in test [12].

As to `CCCCC/C=C/C/C=C/CCCCCCCC(=O)O[C@H]1CC[C@]2(C)[C@H]3C[C@@H](O)[C@@H]4[C@@H]([C@@]5(C)CCCC(C)(C)O5)CC[C@@]4(C)[C@]3(C)CC[C@H]2C1(C)C`, the IC50 in test [4] is above 50 µM; in [8], 17.9 µM; in test [10], 32.1 µM; in [12], above 50 µM.

With `CCCCCCCC/C=C/CCCCCCCC(=O)O[C@H]1CC[C@]2(C)[C@H]3C[C@@H](O)[C@@H]4[C@@H]([C@@]5(C)CCCC(C)(C)O5)CC[C@@]4(C)[C@]3(C)CC[C@H]2C1(C)C`, the IC50 is above 50 µM in test [4], 20.9 µM in test [8], 16.6 µM in [10] and above 50 µM in [12].

On to `CCCCCCCC/C=C/CCCCCCCCCCCC(=O)O[C@H]1CC[C@]2(C)[C@H]3C[C@@H](O)[C@@H]4[C@@H]([C@@]5(C)CCCC(C)(C)O5)CC[C@@]4(C)[C@]3(C)CC[C@H]2C1(C)C`, for which the IC50 was above 50 µM in test [4], 14.8 µM in test [8], 40.5 µM in test [10] and above 50 µM in test [12].

On to `CC1(C)CCC[C@](C)([C@H]2CC[C@]3(C)[C@@H]2[C@H](O)C[C@@H]2[C@@]4(C)CC[C@H](OC(=O)CN)C(C)(C)[C@@H]4CC[C@]23C)O1`, for which the viability at 25 µM was 7.51% in [1], 10.3% in [7] and 13% in [11]. For the same molecule, the viability at 50 µM in test [2] was 6.66%; in test [3] it was 18.7%; in test [6] it was 10%; in [9] it was 12%. Moreover, the IC50 is 14 µM in [4], 9.9 µM in test [8], 13.7 µM in [10] and 11.3 µM in test [12]. The viability at 100 µM in test [5] was 13.5%.

For `CC(C)C(N)C(=O)O[C@H]1CC[C@]2(C)[C@H]3C[C@@H](O)[C@@H]4[C@@H]([C@@]5(C)CCCC(C)(C)O5)CC[C@@]4(C)[C@]3(C)CC[C@H]2C1(C)C` (stereo partly specified), the viability at 25 µM in test [1] was 14.6%; in test [7], 26.4%; in test [11], 16.4%. The viability at 50 µM came to 6.47% in [2], 21.2% in test [3], 11.7% in [6] and 13.7% in test [9]. Also, the IC50 turned out to be 31.8 µM in test [4], 16.2 µM in test [8], 17.3 µM in test [10] and 9.29 µM in test [12]. The viability at 100 µM in test [5] is 15.4%.

Consider `CC(C)CC(N)C(=O)O[C@H]1CC[C@]2(C)[C@H]3C[C@@H](O)[C@@H]4[C@@H]([C@@]5(C)CCCC(C)(C)O5)CC[C@@]4(C)[C@]3(C)CC[C@H]2C1(C)C` (stereo partly specified), for which the values for the viability at 25 µM in test [1], in test [7] and in test [11] were 10.8%, 28.1% and 18.1%, respectively. Also, the viability at 50 µM in test [2] turned out to be 6.91%; in test [3] it was 18.1%; in [6], 15.3%; in [9], 14.3%. Further, the IC50 in test [4] was 24.9 µM; in test [8], 17.9 µM; in [10], 18 µM; in [12] it was 5.03 µM. In test [5], the viability at 100 µM is 10.5%.

As for `CSCCC(N)C(=O)O[C@H]1CC[C@]2(C)[C@H]3C[C@@H](O)[C@@H]4[C@@H]([C@@]5(C)CCCC(C)(C)O5)CC[C@@]4(C)[C@]3(C)CC[C@H]2C1(C)C` (stereo partly specified), the viability at 25 µM in test [1] is 13%; in test [7], 28.4%; in test [11] it was 18.4%. Further, the viability at 50 µM came out at 6.4% in test [2], 21.6% in test [3], 8.56% in test [6] and 11.6% in test [9]. Also, the half-inhibitory concentration (IC50) in [4] amounted to 22.4 µM; in test [8] it was 13.1 µM; in test [10], 16.8 µM; in test [12] it was 11.8 µM. Besides, the viability at 100 µM in [5] worked out at 12.7%.

In the case of `CC1(C)CCC[C@](C)([C@H]2CC[C@]3(C)[C@@H]2[C@H](O)C[C@@H]2[C@@]4(C)CC[C@H](OC(=O)C(N)Cc5ccccc5)C(C)(C)[C@@H]4CC[C@]23C)O1` (stereo partly specified), the values for the viability at 25 µM in test [1], in test [7] and in test [11] were 10.3%, 9.95% and 15%, respectively. Besides, the viability at 50 µM in test [2] stood at 8.58%; in test [3], 20.5%; in test [6], 8.82%; in test [9], 10.9%. In addition, the IC50 is 18.6 µM in test [4], 15.2 µM in test [8], 16.4 µM in [10] and 8.82 µM in test [12]. Besides, the viability at 100 µM in test [5] came to 15.2%.

Regarding `CC1(C)CCC[C@](C)([C@H]2CC[C@]3(C)[C@@H]2[C@H](O)C[C@@H]2[C@@]4(C)CC[C@H](OC(=O)C5CCCN5)C(C)(C)[C@@H]4CC[C@]23C)O1` (stereo partly specified), the values for the viability at 25 µM in test [1], in test [7] and in test [11] were 10.4%, 5.72% and 12.4%, respectively. For the same molecule, the viability at 50 µM in test [2] was determined as 6.04%; in test [3], 19.5%; in test [6] it was 6.39%; in test [9], 8.72%. Besides, the IC50 stood at 7.63 µM in test [4], 16.7 µM in test [8], 14.4 µM in test [10] and 8.91 µM in [12]. For the same molecule, in test [5], the viability at 100 µM came to 14.1%.

On to `CC1(C)CCC[C@](C)([C@H]2CC[C@]3(C)[C@@H]2[C@H](O)C[C@@H]2[C@@]4(C)CC[C@H](O)C(C)(C)[C@@H]4CC[C@]23C)O1` [PANAXADIOL], for which the viability at 25 µM in [1] is 18.8%; in test [7], 69%; in test [11] it was 53.4%. In addition, the viability at 50 µM came out at 12.4% in test [2], 36% in [3], 37.7% in test [6] and 25.7% in test [9]. Moreover, the IC50 in test [4] was 43.1 µM; in [8], 5.61 µM; in [10], 26.8 µM; in test [12], 37.9 µM. Also, in [5], the viability at 100 µM amounted to 24.5%.
